Reference: PubChem BioAssay (NCI)
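Protocol summary: plate cells (96-well), add compound at 5 concentrations, incubate 48 h, interpolate endpoints linearly. GI50 marks 50% less growth. TGI marks complete inhibition of growth.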

Legend:
Assay in all cases: NCI tumour cell line growth inhibition, 48 h; in the data active = GI50 below about 0.43 µM; inactive = the rest
[1] = tested on: NCI-H23 lung
[2] = tested on: NCI-H460 lung
[3] = tested on: NCI-H522 lung
[4] = tested on: NCI/ADR-RES ovarian
[5] = tested on: OVCAR-3 ovarian
[6] = tested on: OVCAR-4 ovarian
[7] = tested on: OVCAR-5 ovarian
[8] = tested on: OVCAR-8 ovarian
[9] = tested on: PC-3 prostate
[10] = tested on: RPMI-8226 leukemia
[11] = tested on: RXF 393 renal
[12] = tested on: SF-268 CNS
[13] = tested on: SF-295 CNS
[14] = tested on: SF-539 CNS
[15] = tested on: SK-MEL-28 melanoma
[16] = tested on: SK-MEL-5 melanoma
[17] = tested on: SK-OV-3 ovarian
[18] = tested on: SN12C renal
[19] = tested on: SNB-19 CNS
[20] = tested on: SNB-75 CNS
[21] = tested on: SR leukemia
[22] = tested on: SW-620 colon
[23] = tested on: T-47D breast
[24] = tested on: TK-10 renal
[25] = tested on: U251 CNS
[26] = tested on: UACC-257 melanoma
[27] = tested on: UACC-62 melanoma
[28] = tested on: UO-31 renal

CCCCCCCCCC(CCCC(O)CC(=O)O)OC1OC(COC2OC(C)C(O)C(O)C2O)C(O)C(O)C1OC1OC(CO)C(O)C(O)C1OC1OC(C)C(OC(=O)CC(C)C)C(O)C1O (stereo unspecified)
> 60 µM: TGI [1] | TGI [2] | TGI [3] | TGI [4] | TGI [5] | TGI [6] | TGI [7] | TGI [8] | TGI [9] | TGI [10] | TGI [11] | TGI [12] | TGI [13] | TGI [14] | TGI [15] | TGI [16] | TGI [17] | TGI [18] | TGI [19] | TGI [20] | TGI [21] | TGI [22] | TGI [23] | TGI [24] | TGI [25] | TGI [26] | TGI [27] | TGI [28]
inactive: GI50 [1] > 60 µM | GI50 [2] > 60 µM | GI50 [3] > 60 µM | GI50 [4] > 60 µM | GI50 [5] > 60 µM | GI50 [6] > 60 µM | GI50 [7] > 60 µM | GI50 [8] > 60 µM | GI50 [9] > 60 µM | GI50 [10] > 60 µM | GI50 [11] > 60 µM | GI50 [12] > 60 µM | GI50 [13] > 60 µM | GI50 [14] > 60 µM | GI50 [15] > 60 µM | GI50 [16] > 60 µM | GI50 [17] > 60 µM | GI50 [18] > 60 µM | GI50 [19] > 60 µM | GI50 [20] > 60 µM | GI50 [21] > 60 µM | GI50 [22] > 60 µM | GI50 [23] > 60 µM | GI50 [24] > 60 µM | GI50 [25] > 60 µM | GI50 [26] > 60 µM | GI50 [27] > 60 µM | GI50 [28] > 60 µM
